Laboratory results published in patent EP0933379B1, “NOVEL PEPTIDE DERIVATIVES HAVING THIAZOLYL-ALANINE RESIDUE” (SHIONOGI & CO., LTD., priority 1996, dated 1998).

Assays:
[1] = tested on: reserpine-induced hypothermia mice; assay: Anti-reserpine action after oral administration of test compounds; assay type: in vivo, mice (ddY, male); conditions: 10 µmol/kg in saline, calculated from AUC of rectal temperature over 420 min versus vehicle, reserpine 3 mg/kg s.c. 18 hours before
Description: Reserpine-induced hypothemia mice (ddY, male, body weight 30 to 40 g) were prepared by the subcutaneous administration of reserpine in back side of the […] (3 mg/kg) at 18 hours before test compounds administration. Mice with their body temperature about 25 °C were used in the experiment. Test compounds were solubilized in saline and 0.2 ml (10 µmol/kg) of them were administered by sonde for oral administration. After the administration, rectal temperature was measured at 30, 60, 120, 180, 240, 300, […]. The area under curve (AUC) of the body temperature-time profile was calculated by the general trapezoidal method. In the control experiment, vehicle (saline) was administered to mice and the rectal temperature was measured by the same protocol.
Effective dose: Dose which can increase the average of body temperatures at 1 °C for 420 min in reserpine-induced hypothermia mice.

[2] = tested on: reserpine-induced hypothermia mice; assay: Anti-reserpine action after intravenous and intracerebroventricular administration of test compounds; assay type: in vivo, mice (ddY, male); conditions: calculated from AUC of rectal temperature over 180 min versus vehicle; for Dose which can increase the average of body temperatures at 1 °C for 180 min in reserpine-induced hypothermia mice, administered intracerebroventricularly: intracerebroventricular, 0.21 µmol/kg; for Dose which can increase the average of body temperatures at 1 °C for 180 min in reserpine-induced hypothermia mice, administered intravenously: intravenous, 1 µmol/kg
Description: Recerpine-induced hypothermia mice (ddY, male) were prepared by the administration of reserpine (3 mg/kg) at 18 hours before test compounds administration. Mice with their body temperature about 25 °C were used in the experiment. Test compounds were solubilized in saline and 0.1 ml (1 µmol/kg) of them were administered intravenously and 0.005 ml (0.21 µmol/kg) of them were administered intracerebroventricularly, respectively. After the administration, rectal temperature was measured at 30, 60, 120, and 180 min. The area under curve (AUC) of the body temperature-time profile was calculated by the general trapezoidal method. In the control experiment, vehicle (saline) was administered to mice intravenously or intracerebroventricularly and the rectal temperature was measured by the same protocol.
Effective dose: Dose which can increase the average of body temperatures at 1°C for 180 min in reserpine-induced hypothermia mice.

[3] = Change of blood glucose levels after administration of the test compounds to rats; assay type: in vivo, male Wistar rats; conditions: for blood glucose level as a percentage compared to the baseline level: 50 µmol/kg intravenously, vehicle-treated rats = 100 %
Description: Fasted male Wistar rats (250-350 g) were anaesthesized with urethane. Test compounds were solubilized in saline and administered intravenously (50 µmol/kg). Body temperature of rats were kept at 37 °C by a hot blanket. After the administration, blood was collected from jugular vein at 5, 15, 30, 60, 120, 180, 240, 300, 360, 420, and 480 min and blood glucose levels were measured (BM Test blood sugar. Wako Chemical Indus.). The blood glucose levels at each sampling time in vehicle (saline)-treated rats were defined as the baseline level (100 %). […]

[4] = time 0 min, fasted urethane-anaesthetized rats

SMILES	Dose which can increase the average of body temperatures at 1 °C for 420 min in reserpine-induced hypothermia mice (by oral) [1] [µmol/kg]	Dose which can increase the average of body temperatures at 1 °C for 180 min in reserpine-induced hypothermia mice, administered intracerebroventricularly [2] [µmol/kg]	Dose which can increase the average of body temperatures at 1 °C for 180 min in reserpine-induced hypothermia mice, administered intravenously [2] [µmol/kg]	blood glucose level as a percentage compared to the baseline level [3, 4] [%]	blood glucose level as a percentage compared to the baseline level ([3]; time 5 min) [%]	blood glucose level as a percentage compared to the baseline level ([3]; time 15 min) [%]	blood glucose level as a percentage compared to the baseline level ([3]; time 30 min) [%]	blood glucose level as a percentage compared to the baseline level ([3]; time 60 min) [%]	blood glucose level as a percentage compared to the baseline level ([3]; time 120 min) [%]	blood glucose level as a percentage compared to the baseline level ([3]; time 180 min) [%]	blood glucose level as a percentage compared to the baseline level ([3]; time 240 min) [%]	blood glucose level as a percentage compared to the baseline level ([3]; time 300 min) [%]	blood glucose level as a percentage compared to the baseline level ([3]; time 360 min) [%]	blood glucose level as a percentage compared to the baseline level ([3]; time 420 min) [%]	blood glucose level as a percentage compared to the baseline level ([3]; time 480 min) [%]	acute rise of the blood glucose level and acute fall by the rebound ([3]; result in words, general description)
C[C@H]1OC(=O)N(CN2CCOCC2)[C@H]1C(=O)N[C@@H](Cc1cscn1)C(=O)N1CCC[C@H]1C(N)=O (mixture of isomers) [I-40, cis-L-3-morpholinomethyl-5-methyl-2-oxo-oxazolidine-4-yl-carbonyl-3-(4-thiazolyl)-L-alanyl-L-prolineamide]	1.65															
C[C@H]1OC(=O)N[C@H]1C(=O)N[C@@H](Cc1cscn1)C(=O)N1CCC[C@H]1C(N)=O (mixture of isomers) [I-10, cis-L-5-methyl-2-oxo-oxazolidine-4-yl-carbonyl-3-(4-thiazolyl)-L-alanyl-L-prolineamide]	1.14	0.025	0.11	107.7	119.9	104.3	109.1	112.1	126.5	105.3	110.9	104.0	100.4	102.6	111.8	
CN1C(=O)C[C@@H](C(=O)N[C@@H](Cc2cscn2)C(=O)N2CSC[C@H]2C(N)=O)NC1=O [I-5]	1.22															
CC(C)OC(=O)CNC(=O)[C@@H]1CCCN1C(=O)[C@H](Cc1cscn1)NC(=O)[C@H]1NC(=O)O[C@H]1C [I-30]	2.59															
NC(=O)[C@@H]1CCCN1C(=O)[C@H](Cc1cnc[nH]1)NC(=O)[C@@H]1CCC(=O)N1 [TRH, L-pyroglutamyl-L-histidyl-L-prolineamide]	42.68	0.033	9.84	116.3	114.6	123.3	137.9	153.5	139.1	119.1	112.6	113.2	103.5	102.6	97.1	acutely raises up the blood glucose level
C[C@@H]1OC(=O)N[C@@H]1C(=O)N[C@@H](Cc1cscn1)C(=O)N1CSC[C@H]1C(N)=O [I-11]	2.03															
